{
  "source": "patent US20230085307A1",
  "about": "“PYRIDAZINONE COMPOUND AND HERBICIDE” (NISSAN CHEMICAL CORPORATION, priority 2019, published 2023)",
  "conditions_in_all_cases": "foliage application, 270 g/ha, 3 weeks after application",
  "key": {"southern crabgrass": {"test_system": "southern crabgrass", "assay": "Test Example 5: herbicidal effect by foliage application, plastic box (Table 20, symbol F)", "type": "in vivo, southern crabgrass (Digitaria ciliaris)", "summary_of_the_method": "(§1)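 Plants were sown into sterilized diluvial soil under about 1.5 cm cover and kept in a greenhouse at 25° C. to 30° C. Fourteen days on, foliage received an even spray of the diluted emulsion. Herbicidal or crop effect was judged three weeks afterwards.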"}, "green foxtail": {"test_system": "green foxtail", "assay": "Test Example 5: herbicidal effect by foliage application, plastic box (Table 20, symbol G)", "type": "in vivo, green foxtail (Setaria viridis)", "summary_of_the_method": "as §1"}, "barnyard grass": {"test_system": "barnyard grass", "assay": "Test Example 5: herbicidal effect by foliage application, plastic box (Table 20, symbol H)", "type": "in vivo, barnyard grass (Echinochloa crus-galli)", "summary_of_the_method": "as §1"}, "wild oat": {"test_system": "wild oat", "assay": "Test Example 5: herbicidal effect by foliage application, plastic box (Table 20, symbol I)", "type": "in vivo, wild oat (Avena fatua)", "summary_of_the_method": "as §1"}, "blackgrass": {"test_system": "blackgrass", "assay": "Test Example 5: herbicidal effect by foliage application, plastic box (Table 20, symbol J)", "type": "in vivo, blackgrass (Alopecurus myosuroides)", "summary_of_the_method": "as §1"}, "Italian ryegrass": {"test_system": "Italian ryegrass", "assay": "Test Example 5: herbicidal effect by foliage application, plastic box (Table 20, symbol K)", "type": "in vivo, Italian ryegrass (Lolium multiflorum)", "summary_of_the_method": "as §1"}, "windgrass": {"test_system": "windgrass", "assay": "Test Example 5: herbicidal effect by foliage application, plastic box (Table 20, symbol L)", "type": "in vivo, windgrass (Apera spica-venti)", "summary_of_the_method": "as §1"}, "velvetleaf": {"test_system": "velvetleaf", "assay": "Test Example 5: herbicidal effect by foliage application, plastic box (Table 20, symbol M)", "type": "in vivo, velvetleaf (Abutilon theophrasti)", "summary_of_the_method": "as §1"}, "lambsquarters": {"test_system": "lambsquarters", "assay": "Test Example 5: herbicidal effect by foliage application, plastic box (Table 20, symbol O)", "type": "in vivo, lambsquarters (Chenopodium album)", "summary_of_the_method": "as §1"}, "false cleavers": {"test_system": "false cleavers", "assay": "Test Example 5: herbicidal effect by foliage application, plastic box (Table 20, symbol Q)", "type": "in vivo, false cleavers (Galium spurium)", "excerpt": "[Test Example 5] Herbicidal Effect Test by Foliage Application\nSterilized diluvial soil was placed in a plastic box having a length of 21 cm, a width of 13 cm, and a depth of 7 cm. The seeds of each of southern crabgrass, green foxtail, barnyard grass, wild oat, blackgrass, Italian ryegrass, windgrass, velvetleaf, redroot pigweed, lambsquarters, chickweed, false cleavers, persian speedwell, corn, soybean, rice, wheat, beet, and rapeseed were sowed in a spot-like manner and covered with the soil having a thickness of about 1.5 cm. Thereafter, the plants were grown in a greenhouse at 25° C. to 30° C. After 14-day growth of the plants, the emulsion agent of the compound of the present invention prepared according to Formulation Example 2 was diluted with water so as to achieve a predetermined herbicide amount, and the diluted emulsion agent was uniformly applied to a foliage part with a small-sized spray. Three weeks after the herbicide application, the effect of the herbicide on each plant was evaluated according to the criteria of Test Example 1."}, "persian speedwell": {"test_system": "persian speedwell", "assay": "Test Example 5: herbicidal effect by foliage application, plastic box (Table 20, symbol R)", "type": "in vivo, Persian speedwell (Veronica persica)", "summary_of_the_method": "as §1"}},
  "data": [
    {"smiles": "COCCOCOc1c(C)nn(C)c(=O)c1-c1c(-c2ccc(OCC(=O)OC)cc2)sc2ccccc12", "note": "[1-233]", "values": [
      {"measurement": "effect on southern crabgrass (F)", "setting": "southern crabgrass", "value": "0 (Herbicidal rate of 5% or less (almost no effect))"},
      {"measurement": "effect on green foxtail (G)", "setting": "green foxtail", "value": "0 (Herbicidal rate of 5% or less (almost no effect))"},
      {"measurement": "effect on barnyard grass (H)", "setting": "barnyard grass", "value": "0 (Herbicidal rate of 5% or less (almost no effect))"},
      {"measurement": "effect on wild oat (I)", "setting": "wild oat", "value": "0 (Herbicidal rate of 5% or less (almost no effect))"},
      {"measurement": "effect on blackgrass (J)", "setting": "blackgrass", "value": "0 (Herbicidal rate of 5% or less (almost no effect))"},
      {"measurement": "effect on Italian ryegrass (K)", "setting": "Italian ryegrass", "value": "0 (Herbicidal rate of 5% or less (almost no effect))"},
      {"measurement": "effect on windgrass (L)", "setting": "windgrass", "value": "0 (Herbicidal rate of 5% or less (almost no effect))"},
      {"measurement": "effect on velvetleaf (M)", "setting": "velvetleaf", "value": "0 (Herbicidal rate of 5% or less (almost no effect))"},
      {"measurement": "effect on lambsquarters (O)", "setting": "lambsquarters", "value": "2 (Herbicidal rate of 20% or more and less than 40%)"},
      {"measurement": "effect on false cleavers (Q)", "setting": "false cleavers", "value": "0 (Herbicidal rate of 5% or less (almost no effect))"},
      {"measurement": "effect on persian speedwell (R)", "setting": "persian speedwell", "value": "0 (Herbicidal rate of 5% or less (almost no effect))"}
    ]}
  ]
}
